Measurements reported in the kinase profiling compilation of Christmann-Franck et al. (2016).

Experiments:
Test in all cases: KINOMEscan competition binding
Settings in all cases: compound 10.0 µM
[1] = molecular target: CSNK1D (human) (UniProt P48730)
[2] = molecular target: MAP3K4 (human) (UniProt Q9Y6R4)
[3] = molecular target: CDK16 (human) (UniProt Q00536)
[4] = molecular target: ULK1 (human) (UniProt O75385)
[5] = molecular target: CSF1R (human) (UniProt P07333)
[6] = molecular target: PTK6 (human) (UniProt Q13882)
[7] = molecular target: MAPK14 (human) (UniProt Q16539)
[8] = molecular target: PLK3 (human) (UniProt Q9H4B4)
[9] = molecular target: PTK2B (human) (UniProt Q14289)
[10] = molecular target: PAK6 (human) (UniProt Q9NQU5)
[11] = molecular target: CDK15 (human) (UniProt Q96Q40)
[12] = molecular target: PIK3CB (human) (UniProt P42338)
[13] = molecular target: MYO3B (human) (UniProt Q8WXR4)
[14] = molecular target: CDK14 (human) (UniProt O94921)
[15] = molecular target: CSK (human) (UniProt P41240)
[16] = molecular target: MAPK7 (human) (UniProt Q13164)
[17] = molecular target: EPHA5 (human) (UniProt P54756)
[18] = molecular target: PIK3CA (human) (UniProt P42336)
[19] = molecular target: STK33 (human) (UniProt Q9BYT3)
[20] = molecular target: TXK (human) (UniProt P42681)
[21] = molecular target: CDK18 (human) (UniProt Q07002)
[22] = molecular target: TNNI3K (human) (UniProt Q59H18)
[23] = molecular target: MAPK13 (human) (UniProt O15264)
[24] = molecular target: TNK2 (human) (UniProt Q07912)
[25] = molecular target: RPS6KA1 KD2 (human) (UniProt Q15418)
[26] = molecular target: TYRO3 (human) (UniProt Q06418)
[27] = molecular target: RAF1 (human) (UniProt P04049)
[28] = molecular target: PDGFRB (human) (UniProt P09619)
[29] = molecular target: CIT (human) (UniProt O14578)
[30] = molecular target: BRSK2 (human) (UniProt Q8IWQ3)
[31] = molecular target: ADCK3 (human) (UniProt Q8NI60)
[32] = molecular target: TAOK1 (human) (UniProt Q7L7X3)
[33] = molecular target: MAP3K7 (human) (UniProt O43318)
Sequence of MAP3K7 (human) (O43318 whole entry, looked up): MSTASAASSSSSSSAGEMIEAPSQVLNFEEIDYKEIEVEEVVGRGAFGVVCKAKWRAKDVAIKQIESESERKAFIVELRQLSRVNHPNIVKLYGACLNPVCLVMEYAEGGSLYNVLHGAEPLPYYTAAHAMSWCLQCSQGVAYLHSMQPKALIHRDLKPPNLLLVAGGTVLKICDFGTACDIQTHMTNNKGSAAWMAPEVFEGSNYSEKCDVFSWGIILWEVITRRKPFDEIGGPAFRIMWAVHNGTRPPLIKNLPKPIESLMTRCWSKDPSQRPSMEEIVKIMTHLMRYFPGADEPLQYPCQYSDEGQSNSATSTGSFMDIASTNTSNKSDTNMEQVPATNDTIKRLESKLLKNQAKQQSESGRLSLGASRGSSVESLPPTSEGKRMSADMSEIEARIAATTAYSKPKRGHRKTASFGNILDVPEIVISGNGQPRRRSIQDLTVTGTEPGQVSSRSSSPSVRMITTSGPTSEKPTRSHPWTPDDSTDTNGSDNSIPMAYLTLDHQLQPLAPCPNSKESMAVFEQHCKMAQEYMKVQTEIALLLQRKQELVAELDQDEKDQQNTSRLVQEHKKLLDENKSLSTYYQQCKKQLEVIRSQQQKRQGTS

Sequence of TXK (human) (P42681 whole entry, looked up): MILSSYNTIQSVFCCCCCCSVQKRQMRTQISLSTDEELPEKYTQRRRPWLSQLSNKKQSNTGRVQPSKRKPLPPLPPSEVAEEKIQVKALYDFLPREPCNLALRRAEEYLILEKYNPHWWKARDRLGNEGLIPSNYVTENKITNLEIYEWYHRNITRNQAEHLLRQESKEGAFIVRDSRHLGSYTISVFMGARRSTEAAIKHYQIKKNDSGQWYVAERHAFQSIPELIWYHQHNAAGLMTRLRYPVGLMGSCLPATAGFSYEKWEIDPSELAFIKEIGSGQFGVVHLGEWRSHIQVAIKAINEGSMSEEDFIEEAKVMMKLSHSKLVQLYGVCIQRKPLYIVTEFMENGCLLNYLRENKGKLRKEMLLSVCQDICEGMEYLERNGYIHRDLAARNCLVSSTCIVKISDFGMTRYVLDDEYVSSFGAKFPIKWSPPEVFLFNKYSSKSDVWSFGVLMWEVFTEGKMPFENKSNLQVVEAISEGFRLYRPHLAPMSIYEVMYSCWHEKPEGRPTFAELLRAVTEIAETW
Sequence of CDK18 (human) (Q07002 whole entry, looked up): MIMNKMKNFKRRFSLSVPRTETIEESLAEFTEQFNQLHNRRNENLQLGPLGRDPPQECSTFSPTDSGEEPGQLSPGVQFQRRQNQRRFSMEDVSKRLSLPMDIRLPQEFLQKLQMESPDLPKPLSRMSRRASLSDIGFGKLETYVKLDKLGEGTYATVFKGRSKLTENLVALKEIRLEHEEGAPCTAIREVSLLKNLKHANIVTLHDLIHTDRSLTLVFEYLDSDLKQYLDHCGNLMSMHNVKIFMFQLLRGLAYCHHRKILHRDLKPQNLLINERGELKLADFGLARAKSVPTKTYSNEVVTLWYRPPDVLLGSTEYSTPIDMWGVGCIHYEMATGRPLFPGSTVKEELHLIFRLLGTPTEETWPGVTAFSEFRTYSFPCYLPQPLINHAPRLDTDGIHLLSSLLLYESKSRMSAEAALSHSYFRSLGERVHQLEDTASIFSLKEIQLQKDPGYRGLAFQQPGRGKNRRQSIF
Sequence of MYO3B (human) (Q8WXR4 whole entry, looked up): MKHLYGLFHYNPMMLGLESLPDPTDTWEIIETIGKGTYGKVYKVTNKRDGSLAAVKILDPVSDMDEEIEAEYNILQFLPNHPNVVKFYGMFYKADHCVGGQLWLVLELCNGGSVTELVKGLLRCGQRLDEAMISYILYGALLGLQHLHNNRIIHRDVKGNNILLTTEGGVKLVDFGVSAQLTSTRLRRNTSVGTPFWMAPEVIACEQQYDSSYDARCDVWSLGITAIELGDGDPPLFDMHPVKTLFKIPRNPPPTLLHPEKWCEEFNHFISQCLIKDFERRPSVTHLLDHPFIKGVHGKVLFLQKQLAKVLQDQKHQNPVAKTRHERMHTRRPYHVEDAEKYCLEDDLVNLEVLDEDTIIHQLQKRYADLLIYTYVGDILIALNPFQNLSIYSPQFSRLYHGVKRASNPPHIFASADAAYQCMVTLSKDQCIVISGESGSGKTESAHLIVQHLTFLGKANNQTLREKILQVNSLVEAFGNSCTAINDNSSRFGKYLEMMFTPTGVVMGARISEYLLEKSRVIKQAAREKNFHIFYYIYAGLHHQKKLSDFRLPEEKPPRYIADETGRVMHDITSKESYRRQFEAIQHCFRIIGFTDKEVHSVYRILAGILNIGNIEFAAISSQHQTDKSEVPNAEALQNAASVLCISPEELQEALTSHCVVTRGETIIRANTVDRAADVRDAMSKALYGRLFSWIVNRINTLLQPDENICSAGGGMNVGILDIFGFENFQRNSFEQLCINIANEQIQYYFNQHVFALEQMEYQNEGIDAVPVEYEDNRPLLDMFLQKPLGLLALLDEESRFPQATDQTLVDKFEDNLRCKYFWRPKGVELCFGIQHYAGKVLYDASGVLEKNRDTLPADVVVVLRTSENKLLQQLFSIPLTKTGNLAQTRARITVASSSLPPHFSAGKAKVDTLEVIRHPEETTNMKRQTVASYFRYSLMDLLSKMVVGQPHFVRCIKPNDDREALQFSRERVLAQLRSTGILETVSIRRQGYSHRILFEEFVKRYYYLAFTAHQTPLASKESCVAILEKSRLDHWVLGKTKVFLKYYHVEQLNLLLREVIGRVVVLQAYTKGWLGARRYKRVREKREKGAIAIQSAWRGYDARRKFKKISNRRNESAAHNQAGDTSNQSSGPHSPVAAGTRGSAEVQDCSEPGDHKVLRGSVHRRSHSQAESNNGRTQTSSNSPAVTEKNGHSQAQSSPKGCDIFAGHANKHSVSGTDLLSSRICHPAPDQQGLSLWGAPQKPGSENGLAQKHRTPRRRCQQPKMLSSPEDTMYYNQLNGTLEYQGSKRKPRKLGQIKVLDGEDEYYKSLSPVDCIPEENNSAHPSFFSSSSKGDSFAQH
Sequence of ULK1 (human) (O75385 whole entry, looked up): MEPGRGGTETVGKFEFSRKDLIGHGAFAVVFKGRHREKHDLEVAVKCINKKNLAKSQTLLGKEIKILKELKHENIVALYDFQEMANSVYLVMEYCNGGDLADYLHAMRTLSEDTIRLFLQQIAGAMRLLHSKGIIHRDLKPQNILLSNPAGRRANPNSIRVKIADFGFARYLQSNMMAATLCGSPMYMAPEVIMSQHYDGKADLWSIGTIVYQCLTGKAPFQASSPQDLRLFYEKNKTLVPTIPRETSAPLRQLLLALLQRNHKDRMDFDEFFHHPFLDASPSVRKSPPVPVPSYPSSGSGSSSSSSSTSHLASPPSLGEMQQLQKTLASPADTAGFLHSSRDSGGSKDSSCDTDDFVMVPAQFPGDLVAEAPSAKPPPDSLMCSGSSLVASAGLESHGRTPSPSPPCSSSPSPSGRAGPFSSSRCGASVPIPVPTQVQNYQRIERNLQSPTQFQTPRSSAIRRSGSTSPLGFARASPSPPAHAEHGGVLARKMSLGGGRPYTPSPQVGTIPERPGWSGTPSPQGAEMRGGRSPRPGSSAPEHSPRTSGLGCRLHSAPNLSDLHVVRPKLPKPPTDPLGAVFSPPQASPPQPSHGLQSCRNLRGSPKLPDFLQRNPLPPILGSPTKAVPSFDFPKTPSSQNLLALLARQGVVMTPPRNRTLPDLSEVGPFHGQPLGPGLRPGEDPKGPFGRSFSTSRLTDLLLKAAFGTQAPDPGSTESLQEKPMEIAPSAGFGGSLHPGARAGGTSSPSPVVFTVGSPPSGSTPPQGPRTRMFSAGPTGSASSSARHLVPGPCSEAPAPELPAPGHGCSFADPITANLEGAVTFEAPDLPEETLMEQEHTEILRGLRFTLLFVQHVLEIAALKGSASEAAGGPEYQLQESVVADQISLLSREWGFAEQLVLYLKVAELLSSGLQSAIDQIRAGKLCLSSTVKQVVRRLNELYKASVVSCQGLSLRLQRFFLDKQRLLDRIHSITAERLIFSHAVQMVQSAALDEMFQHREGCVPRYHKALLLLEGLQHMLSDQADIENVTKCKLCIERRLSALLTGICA
Sequence of TNK2 (human) (Q07912 whole entry, looked up): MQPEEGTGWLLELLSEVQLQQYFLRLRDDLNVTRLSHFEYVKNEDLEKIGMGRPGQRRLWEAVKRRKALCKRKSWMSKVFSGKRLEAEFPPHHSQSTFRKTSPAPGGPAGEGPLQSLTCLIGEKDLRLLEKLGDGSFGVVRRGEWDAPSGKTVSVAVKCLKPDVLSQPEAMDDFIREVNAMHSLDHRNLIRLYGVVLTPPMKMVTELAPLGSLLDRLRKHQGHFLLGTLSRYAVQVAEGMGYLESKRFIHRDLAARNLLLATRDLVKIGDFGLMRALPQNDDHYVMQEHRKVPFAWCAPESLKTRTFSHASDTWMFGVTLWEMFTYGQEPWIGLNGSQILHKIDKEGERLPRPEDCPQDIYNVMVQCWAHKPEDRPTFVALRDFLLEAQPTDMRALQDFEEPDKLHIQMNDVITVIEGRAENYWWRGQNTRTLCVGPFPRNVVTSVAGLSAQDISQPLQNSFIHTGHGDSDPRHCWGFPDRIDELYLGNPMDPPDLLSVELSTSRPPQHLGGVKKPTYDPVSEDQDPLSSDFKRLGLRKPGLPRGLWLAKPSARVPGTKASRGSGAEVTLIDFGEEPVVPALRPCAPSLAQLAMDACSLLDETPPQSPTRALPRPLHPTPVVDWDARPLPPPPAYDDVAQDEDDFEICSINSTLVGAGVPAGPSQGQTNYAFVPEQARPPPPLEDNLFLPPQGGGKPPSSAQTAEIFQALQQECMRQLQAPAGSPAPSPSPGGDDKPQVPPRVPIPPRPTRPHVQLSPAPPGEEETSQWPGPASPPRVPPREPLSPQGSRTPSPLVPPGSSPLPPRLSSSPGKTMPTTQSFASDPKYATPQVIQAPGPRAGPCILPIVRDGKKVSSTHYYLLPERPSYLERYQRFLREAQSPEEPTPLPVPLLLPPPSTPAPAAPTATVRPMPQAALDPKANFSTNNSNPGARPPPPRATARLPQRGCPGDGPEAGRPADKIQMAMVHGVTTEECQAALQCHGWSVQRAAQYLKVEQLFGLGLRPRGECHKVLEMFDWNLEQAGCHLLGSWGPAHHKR

Row | kinase still bound, per cent of control [2] | kinase still bound, per cent of control [3] | kinase still bound, per cent of control [4] | kinase still bound, per cent of control [5] | kinase still bound, per cent of control [6] | kinase still bound, per cent of control [7] | kinase still bound, per cent of control [8] | kinase still bound, per cent of control [9] | kinase still bound, per cent of control [10] | kinase still bound, per cent of control [11] | kinase still bound, per cent of control [12] | kinase still bound, per cent of control [13] | kinase still bound, per cent of control [14] | kinase still bound, per cent of control [15] | kinase still bound, per cent of control [16] | kinase still bound, per cent of control [17] | kinase still bound, per cent of control [18] | kinase still bound, per cent of control [19] | kinase still bound, per cent of control [20] | kinase still bound, per cent of control [21] | further results | SMILES
1 | 100% | 100% | 1.6% | 14% | 100% | 100% | 100% | 25% | 100% | 100% | 100% | 100% | 100% | 100% | 4% | 100% | 100% | 1.3% | 16% | 100% | kinase still bound, per cent of control [1]: 100%; kinase still bound, per cent of control [22]: 100%; kinase still bound, per cent of control [23]: 100%; kinase still bound, per cent of control [24]: 18%; kinase still bound, per cent of control [25]: 100%; kinase still bound, per cent of control [26]: 100%; kinase still bound, per cent of control [27]: 100%; kinase still bound, per cent of control [28]: 11%; kinase still bound, per cent of control [29]: 100%; kinase still bound, per cent of control [30]: 100%; kinase still bound, per cent of control [31]: 100%; kinase still bound, per cent of control [32]: 100%; kinase still bound, per cent of control [33]: 100% | C=CC(=O)Nc1cccc(Oc2nc(Nc3ccc(N4CCN(C)CC4)cc3OC)ncc2Cl)c1
2 | 100% | 100% | 100% | 1.4% | 100% | 5% | 100% | 100% | 100% | 100% | 100% | 100% | 100% | 100% | 100% | 1.1% | 100% | 100% | 100% | 100% | kinase still bound, per cent of control [1]: 100%; kinase still bound, per cent of control [22]: 12%; kinase still bound, per cent of control [23]: 100%; kinase still bound, per cent of control [24]: 100%; kinase still bound, per cent of control [25]: 100%; kinase still bound, per cent of control [26]: 100%; kinase still bound, per cent of control [27]: 4.5%; kinase still bound, per cent of control [28]: 0.05%; kinase still bound, per cent of control [29]: 100%; kinase still bound, per cent of control [30]: 100%; kinase still bound, per cent of control [31]: 100%; kinase still bound, per cent of control [32]: 100%; kinase still bound, per cent of control [33]: 100% | Cc1ccc(C(=O)Nc2cccc(C(F)(F)F)c2)cc1Nc1cncc(C(N)=O)c1
3 | 100% | 100% | 100% | 100% | 100% | 100% | 0% | 20% | 100% | 100% | 100% | 100% | 100% | 100% | 19% | 100% | 100% | 14% | 100% | 100% | kinase still bound, per cent of control [22]: 100%; kinase still bound, per cent of control [23]: 100%; kinase still bound, per cent of control [24]: 100%; kinase still bound, per cent of control [25]: 21%; kinase still bound, per cent of control [26]: 100%; kinase still bound, per cent of control [27]: 100%; kinase still bound, per cent of control [28]: 100%; kinase still bound, per cent of control [29]: 100%; kinase still bound, per cent of control [30]: 100%; kinase still bound, per cent of control [31]: 100%; kinase still bound, per cent of control [32]: 100%; kinase still bound, per cent of control [33]: 100% | CC[C@@H]1C(=O)N(C)c2cnc(Nc3ccc(C(=O)NC4CCN(C)CC4)cc3OC)nc2N1C1CCCC1
